Tested on: immobilized GST-tagged bait protein domains
Experiment: ProP-PD phage selections (HD2 P8, sublibraries, HD2 P3, HD1 P8) with NGS and confidence level
Format: binding, human
[1] = library HD2, bait TSG101_UEV__Q99816_1_145, validated benchmark motif instance, in_library_check TRUE, TRUE/FALSE = instance recovered in ProP-PD selection
[2] = bait PABP-B_PABP__P11940_544_623, HD2 library, confidence level (1-4) of best matching selected peptide
[3] = bait PABP-B_PABP__P11940_544_623, HD2 library, specificity score of best matching selected peptide
[4] = bait PABP-B_PABP__P11940_544_623, HD2 library, whether the validated benchmark motif instance was recovered in the ProP-PD selection (TRUE/FALSE)
[5] = library HD2, bait EPS15_EH__P42566_121_215, whether the validated benchmark motif instance was recovered in the ProP-PD selection (TRUE/FALSE)
[6] = HD2 library, bait SUMO1_SUMO__P63165_1_101, known motif instance of the benchmarking set found (TRUE) or not found (FALSE) among selected peptides
[7] = bait KPNA4_Arm (O00629 68-487), HD2 library, benchmark motif instance recovered in the ProP-PD selection (TRUE/FALSE)
[8] = bait OXSR1___O95747_434_527, HD2 library, confidence level (1-4) of best matching selected peptide
[9] = bait OXSR1___O95747_434_527, HD2 library, specificity score of best matching selected peptide
[10] = bait OXSR1___O95747_434_527, HD2 library, whether the validated benchmark motif instance was recovered in the ProP-PD selection (TRUE/FALSE)
[11] = library HD2, bait YAP1_WW_1_P46937_169_207, validated benchmark motif instance, in_library_check TRUE, TRUE/FALSE = instance recovered in ProP-PD selection
[12] = bait ANKRA2_Ank__Q9H9E1_142_313, library HD
[13] = bait ANKRA2_Ank__Q9H9E1_142_313, library HD, mean normalised NGS counts
[14] = bait ANKRA2_Ank__Q9H9E1_142_313, library HD, mean raw NGS counts, all selections
[15] = HD2 library, bait CALM1_EF-hand__P0DP23_2_149, benchmark motif instance, in_library_check FALSE, in_library_coverage 0
[16] = bait CALM1_EF-hand__P0DP23_2_149, library HD2, benchmarking set of validated motif instances, TRUE = motif instance recovered in the ProP-PD selection
[17] = bait CRK_SH3_1_P46108_124_198, library HD2, benchmarking set of validated motif instances, TRUE = motif instance recovered in the ProP-PD selection

In the case of YTSPSLPNISLGLQAT, the best_specificity (bait ANKRA2_Ank__Q9H9E1_142_313, library HD2, best matching peptide) is reported as 1 and the best_confidence (bait ANKRA2_Ank__Q9H9E1_142_313, library HD2, confidence level of best matching peptide (4 = High, 2 or 3 = Medium, 1 = Low)) is reported as 4.
LQQSIAREPSAPSIPTPAYQ was tested, and the motif_found [1] was “FALSE”.
In the case of QEPPESVRPSAPPAELEVQA, the motif_found [1] is reported as “FALSE”.
With SALSPNAKEFIFPNMQ the best_confidence [2] was 3, the best_specificity [3] was 1 and the motif_found [4] was “TRUE”.
In the case of NPNAKEFVPGVKYGNI, the best_confidence [2] is reported as 2, the best_specificity [3] is reported as 1 and the motif_found [4] is reported as “TRUE”.
For EDSPLLEDWDIISPKDVIG [TBC1D25 135-139], the motif_found (HD2 library, bait MAP1LC3A_ATG8__Q9H492_2_121, benchmark motif instance, in_library_check FALSE, in_library_coverage 0) was “FALSE” and the motif_found (HD2 library, bait MAP1LC3B_ATG8__Q9GZQ8_2_119, benchmark motif instance, in_library_check FALSE, in_library_coverage 0) was “FALSE”.
PMLPDLTLEAWPSTDK gave a confidence (library HD, bait ANKRA2_Ank__Q9H9E1_142_313, ProP-PD peptides with disease-related mutations) of 3.
With FATLPRKKNPFEESSETWD the motif_found [5] was “FALSE”.
With QRTNPSPTNPFSSDLQKTF the motif_found [5] was “FALSE”.
SSKPNQKKLIVLSDSEVIQLSDG was tested, and the motif_found [6] was “FALSE”.
For EASKKKVDVIDLTIESSSDE, the motif_found [6] was “FALSE”.
With PSTRKDYPAAKRVKLDSVRVLR the motif_found [7] was “FALSE”.
For TLDDSDEDVILVESQDPPLPS, the motif_found [6] was “FALSE”.
DATLCSGRFTISTLLS was tested, and the best_confidence [8] was 2, the best_specificity [9] was 1 and the motif_found [10] was “TRUE”.
Work on VFPRPVLPSLTVSRVI yielded an HD2 confidence (bait ANKRA2_Ank__Q9H9E1_142_313, library HD2 P8) of 4, an HD2_nc confidence (bait ANKRA2_Ank__Q9H9E1_142_313, library HD2 P8 nucleocytoplasmic) of 3 and an HD2_nc count proportions (bait ANKRA2_Ank__Q9H9E1_142_313, library HD2 P8 nucleocytoplasmic, mean normalised NGS counts) of 0.003084. For the same substance, the HD2_nc mean counts (bait ANKRA2_Ank__Q9H9E1_142_313, library HD2 P8 nucleocytoplasmic, mean raw NGS counts, all selections) was 216.6.
RSEIGHSPPPAYTPMS was tested, and the motif_found (bait NEDD4_WW_4 (P46934 890-928), HD2 library, benchmark motif instance recovered in the ProP-PD selection (TRUE/FALSE)) was “TRUE”, the best_confidence (bait NEDD4_WW_4 (P46934 890-928), HD2 library, confidence level (1-4) of best matching peptide) was 2 and the best_specificity (bait NEDD4_WW_4 (P46934 890-928), HD2 library, specificity score of best matching peptide) was 1.
For PPPIEESFPPAPLEEEIFP, the motif_found (library HD2, bait VASP_EVH1__P50552_1_114, validated benchmark motif instance, in_library_check TRUE, TRUE/FALSE = instance recovered in ProP-PD selection) was “FALSE”.
With LSVNAPEFYPSGYSSS the best_confidence [2] was 3, the best_specificity [3] was 1 and the motif_found [4] was “TRUE”.
PSENSNEFEWEDDLPKPKTTEVIR was tested, and the motif_found (library HD2, bait KLC1_TPR__Q07866_203_497, whether the validated benchmark motif instance was recovered in the ProP-PD selection (TRUE/FALSE)) was “FALSE”.
In the case of GMEHRGPPPEYPFKGMPP, the motif_found (bait NEDD4_WW_4_P46934_890_928, HD2 library, whether the validated benchmark motif instance was recovered in the ProP-PD selection (TRUE/FALSE)) is reported as “FALSE” and the motif_found [11] is reported as “FALSE”.
DLRKIPDSNPFDATAGYRS was tested, and the motif_found [5] was “FALSE”.
For PPAPVNDEPIVIED-------, the motif_found [6] was “FALSE”.
With TLALPSLVPQNYTENK the HD confidence [12] was 2, the HD count proportions [13] was 0.0001017 and the HD mean counts [14] was 1.75.
In the case of RKNTKSMNFDNPVYRKTTEEED [LRP8 860-867], the motif_found (HD2 library, bait TLN1_PTB__Q9Y490_309_401, benchmark motif instance, in_library_check FALSE, in_library_coverage 0) is reported as “FALSE”.
With VSPSTSY the motif_found (library HD2, bait USP7_MATH-TRAF__Q93009_53_206, validated benchmark motif instance, in_library_check TRUE, TRUE/FALSE = instance recovered in ProP-PD selection) was “FALSE”.
“DDIMPAVKTVIRSIRILKFLVAKRKF [KCNQ4 524-549]” was tested, and the motif_found [15] was “FALSE”.
For TKVGRFQVTTTANKVG, the best_confidence [8] was 4, the best_specificity [9] was 1 and the motif_found [10] was “TRUE”.
In the case of IIYDRKFLMECRNSPV, the best_specificity (library HD2, bait EIF4E_eIF4E__P06730_1_217, best matching peptide) is reported as 1, the best_confidence (library HD2, bait EIF4E_eIF4E__P06730_1_217, confidence level of best matching peptide (4 High, 2-3 Medium, 1 Low)) is reported as 2 and the motif_found (library HD2, bait EIF4E_eIF4E__P06730_1_217, whether the validated benchmark motif instance was recovered in the ProP-PD selection (TRUE/FALSE)) is reported as “TRUE”.
“RKKWKQSVRLISLCQRLSR,KWKQSVRLISLCQRLS [DAPK1]” was tested, and the motif_found [16] was “FALSE”.
DYDQSRTKVLHMSLNPTSVARQR was tested, and the motif_found (bait MAD2L1_HORMA (Q13257 1-205), HD2 library, benchmark motif instance recovered in the ProP-PD selection (TRUE/FALSE)) was “FALSE”.
With EEEELDESNPFYEPKSTPP the motif_found [5] was “FALSE”.
WNERQPAPALPPKPPKPTTV [PIK3R1] was tested, and the motif_found [17] was “TRUE”.
In the case of LSWPDLLSDPSIVGSN, the HD2-1mM_CaCl confidence (bait CALM1 EF-hand (P0DP23, 2-149), HD2 library selection with 1mM_CaCl, confidence level (4 = High, 2 or 3 = Medium, 1 = Low)) is reported as 3 and the HD2 confidence (bait CALM1 EF-hand (P0DP23, 2-149), HD2 library selection, confidence level (4 = High, 2 or 3 = Medium, 1 = Low)) is reported as 3.
With SDLFPAPPQIPSRPVRIPPG [DNM2] the motif_found [17] was “FALSE”.
For TTTANKVGRFSVSKTE, the best_confidence [8] was 2, the best_specificity [9] was 1 and the motif_found [10] was “TRUE”.
In the case of “DDGLDEAFSRLAQSRT,WELDDGLDEAFSRLAQSRTNPQVLD [LDLRAP1]”, the motif_found (bait AP2B1_adaptin__P63010_700_937, library HD2, benchmarking set of validated motif instances, TRUE = motif instance recovered in the ProP-PD selection) is reported as “TRUE”.
“DKEDDQEHPSEKQPSGAESGTLARASLALPTSSLSRTASQSSSHRGWEILRQNTLGHLNLGLNLSEGDGEE [TRPV5]” was tested, and the motif_found [16] was “FALSE”.
EGTATDRWYDEYHPEEDLQ was tested, and the motif_found (bait PEX14_Pex14__O75381_16_84, HD2 library, whether the validated benchmark motif instance was recovered in the ProP-PD selection (TRUE/FALSE)) was “FALSE”.
In the case of VMSLPKLQQVPGLHPQ, the HD confidence [12] is reported as 3, the HD count proportions [13] is reported as 0.003008 and the HD mean counts [14] is reported as 34.0.
PPDTKLSKLDVLLLAT gave an HD2_nucleus confidence (bait SIN3A_PAH__Q96ST3_295_383, library HD2 P8 nucleus) of 4.
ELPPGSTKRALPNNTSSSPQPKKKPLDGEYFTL was tested, and the motif_found [7] was “FALSE”.
In the case of PPMGEVVTPTAPQEPPESVR, the motif_found [1] is reported as “FALSE”.
QGSWVELHFSNNGNGG was tested, and the motif_found (bait MAP1LC3A_ATG8 (Q9H492 2-121), HD2 library, benchmark motif instance recovered in the ProP-PD selection (TRUE/FALSE)) was “TRUE”, the best_confidence (bait MAP1LC3A_ATG8 (Q9H492 2-121), HD2 library, confidence level (1-4) of best matching peptide) was 3 and the best_specificity (bait MAP1LC3A_ATG8 (Q9H492 2-121), HD2 library, specificity score of best matching peptide) was 1. For the same substance, the motif_found (bait MAP1LC3B_ATG8 (Q9GZQ8 2-119), HD2 library, benchmark motif instance recovered in the ProP-PD selection (TRUE/FALSE)) was “TRUE”, the best_confidence (bait MAP1LC3B_ATG8 (Q9GZQ8 2-119), HD2 library, confidence level (1-4) of best matching peptide) was 3 and the best_specificity (bait MAP1LC3B_ATG8 (Q9GZQ8 2-119), HD2 library, specificity score of best matching peptide) was 1.
With “RKQEEVSAIIIQRAYRRYLLKQKVKKVSSIY [SCN2A 1909-1925]” the motif_found [15] was “FALSE”.
In the case of VEVIDLTIESSSDEED, the best_confidence (bait SUMO1_SUMO__P63165_1_101, HD2 library, confidence level (1-4) of best matching selected peptide) is reported as 4, the best_specificity (bait SUMO1_SUMO__P63165_1_101, HD2 library, specificity score of best matching selected peptide) is reported as 1 and the motif_found (bait SUMO1_SUMO__P63165_1_101, HD2 library, whether the validated benchmark motif instance was recovered in the ProP-PD selection (TRUE/FALSE)) is reported as “TRUE”.
In the case of SASYPPYQATGPPNTSYMPGMPGGI [TSG101], the motif_found (bait CEP55_EABR__Q53EZ4_160_217, library HD2, benchmarking set of validated motif instances, TRUE = motif instance recovered in the ProP-PD selection) is reported as “FALSE”.
With VSGSHCTPPPPYHADP the best_confidence (library HD2, bait YAP1_WW_1_P46937_169_207, confidence level of best matching selected peptide (4 High, 2-3 Medium, 1 Low)) was 4, the best_specificity (library HD2, bait YAP1_WW_1_P46937_169_207, specificity score of best matching selected peptide) was 0.99 and the motif_found [11] was “TRUE”.
For LYPTDCPPSYEAVMGL, the p3_HD2 confidence (bait NEDD4_WW_4_P46934_890_928, HD2 P3 library, confidence level (4 = High, 2-3 = Medium, 1 = Low)) was 3, the p3_HD2 mean counts (bait NEDD4_WW_4_P46934_890_928, HD2 P3 library, mean NGS counts over replicate selections) was 285.3 and the p3_HD2 count proportions (bait NEDD4_WW_4_P46934_890_928, HD2 P3 library, mean proportion of NGS counts) was 0.005597. For the same substance, the HD2_cytoplasm confidence (bait NEDD4_WW_4_P46934_890_928, HD2 P8 cytoplasm sublibrary, confidence level (4 = High, 2-3 = Medium, 1 = Low)) was 4.
With LQLPSLDDQVIPARLP the HD confidence [12] was 3, the HD count proportions [13] was 0.001339 and the HD mean counts [14] was 12.75.

Source: article PMC8769072, “Proteome‐scale mapping of binding sites in the unstructured regions of the human proteome” (Molecular Systems Biology, 2022)
